Measured values from patent publication US4656142A, “Organometallic complexes of estrogens and their application to the determination of hormone receptors” (Centre National de la Recherche Scientifique, priority 1982, dated 1987).

Molecular target: T1, estradiol receptor (Homo sapiens, UniProt P03372)
T1 construct: from tissue; host or cells: ewe uterine cytosol (inferred from the sister test)
Assay: ability to compete with estradiol for the receptor (log/logit curves, Rao et al.); relative binding affinity
Details: competition with estradiol, estradiol = 100
Text: It must be point out that the further the RBA value (relative binding affinity) is from 100, the lower the competitiveness of the steroid tested.

T1 sequence (P03372 whole entry): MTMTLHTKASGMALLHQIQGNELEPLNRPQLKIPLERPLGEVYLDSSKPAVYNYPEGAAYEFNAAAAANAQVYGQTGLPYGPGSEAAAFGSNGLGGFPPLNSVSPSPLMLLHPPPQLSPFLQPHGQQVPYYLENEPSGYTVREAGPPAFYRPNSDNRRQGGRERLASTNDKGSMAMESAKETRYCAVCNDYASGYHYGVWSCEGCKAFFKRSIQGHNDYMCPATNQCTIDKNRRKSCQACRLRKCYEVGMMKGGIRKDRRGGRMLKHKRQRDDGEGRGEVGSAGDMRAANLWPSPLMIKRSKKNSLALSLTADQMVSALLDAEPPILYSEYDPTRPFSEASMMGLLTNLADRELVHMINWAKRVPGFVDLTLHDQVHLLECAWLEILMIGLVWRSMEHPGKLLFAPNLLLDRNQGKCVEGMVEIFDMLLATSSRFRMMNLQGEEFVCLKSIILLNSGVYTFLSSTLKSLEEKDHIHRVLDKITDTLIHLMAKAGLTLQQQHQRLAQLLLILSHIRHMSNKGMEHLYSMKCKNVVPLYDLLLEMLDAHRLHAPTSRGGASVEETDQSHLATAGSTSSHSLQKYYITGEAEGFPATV

With `CC(C)(C)[Si](C)(C)Oc1ccc2c(c1)CC[C@@H]1[C@@H]2CC[C@]2(C)[C@@H](O)CC[C@@H]12` [Compound 1, monosilylated β-estradiol] the “RBA (%) (relative binding affinity)” value was 11%.
